# Laboratory results as given in publication PMC5620987 (ACS Central Science, 2017).
# Read-outs that look alike come from different tables or passages of the source.
# Columns and labels:
# α-tubulin-ac = type: cell-based; conditions: 6 h, human iPSC-derived NPCs, Western blot
# H3K9ac = type: cell-based; conditions: 6 h, human iPSC-derived NPCs, Western blot
# H4K12ac = type: cell-based; conditions: 6 h, human iPSC-derived NPCs, Western blot
# HDAC6 = HDAC6 (Rattus norvegicus, UniProt A0A8I6GM68); assay: Autoradiography with [18F]Bavarostat on rat brain slices; type: binding, Sprague–Dawley rat; conditions: sagittal rat brain slices; 10 μM per Figure 4 legend (100 μM per method)
# Sequence of HDAC6 (A0A8I6GM68 whole entry): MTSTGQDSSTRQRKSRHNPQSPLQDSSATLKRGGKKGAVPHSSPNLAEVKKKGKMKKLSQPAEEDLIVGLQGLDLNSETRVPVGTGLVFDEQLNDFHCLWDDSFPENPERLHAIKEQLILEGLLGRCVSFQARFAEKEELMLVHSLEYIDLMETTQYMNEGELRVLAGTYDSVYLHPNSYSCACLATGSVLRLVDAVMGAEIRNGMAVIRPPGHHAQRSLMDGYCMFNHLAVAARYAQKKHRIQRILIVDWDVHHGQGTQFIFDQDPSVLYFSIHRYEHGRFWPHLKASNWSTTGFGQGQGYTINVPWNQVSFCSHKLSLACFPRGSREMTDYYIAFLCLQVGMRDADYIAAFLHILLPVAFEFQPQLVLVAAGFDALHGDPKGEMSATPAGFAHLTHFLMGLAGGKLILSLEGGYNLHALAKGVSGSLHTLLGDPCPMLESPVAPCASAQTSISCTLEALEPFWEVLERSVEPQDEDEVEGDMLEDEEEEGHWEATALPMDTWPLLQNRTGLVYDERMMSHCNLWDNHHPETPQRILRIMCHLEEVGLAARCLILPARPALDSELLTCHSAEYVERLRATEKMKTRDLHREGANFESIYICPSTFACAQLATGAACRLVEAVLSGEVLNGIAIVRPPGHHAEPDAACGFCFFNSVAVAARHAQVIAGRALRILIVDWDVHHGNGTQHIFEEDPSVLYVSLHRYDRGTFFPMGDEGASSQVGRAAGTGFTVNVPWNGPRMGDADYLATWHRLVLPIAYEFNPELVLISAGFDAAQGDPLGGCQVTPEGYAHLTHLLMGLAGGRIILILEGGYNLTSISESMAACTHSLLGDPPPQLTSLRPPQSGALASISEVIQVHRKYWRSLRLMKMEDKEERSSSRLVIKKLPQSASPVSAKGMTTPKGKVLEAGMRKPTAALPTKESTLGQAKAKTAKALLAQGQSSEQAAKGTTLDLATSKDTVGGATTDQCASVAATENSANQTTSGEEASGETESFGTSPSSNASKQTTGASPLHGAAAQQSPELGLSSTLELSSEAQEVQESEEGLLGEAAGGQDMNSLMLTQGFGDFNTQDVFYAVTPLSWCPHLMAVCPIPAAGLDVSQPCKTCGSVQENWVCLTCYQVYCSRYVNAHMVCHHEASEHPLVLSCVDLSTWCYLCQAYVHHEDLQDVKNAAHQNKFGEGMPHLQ
SMILES,α-tubulin acetylation level (α-tubulin-ac) vs DMSO (α-tubulin-ac; 5 μM),H3K9ac level vs DMSO (H3K9ac; 5 μM),H4K12ac level vs DMSO (H4K12ac; 5 μM),α-tubulin acetylation level (α-tubulin-ac) vs DMSO (α-tubulin-ac; 10 μM),H3K9ac level vs DMSO (H3K9ac; 10 μM),H4K12ac level vs DMSO (H4K12ac; 10 μM),Reduction of bound [18F]Bavarostat radioactivity (HDAC6)
O=C(CCCCCCNC(=O)c1cnc(N(c2ccccc2)c2ccccc2)nc1)NO [ACY-1215],effectively increased,increased,increased,–,–,–,–
CC(=O)Nc1ccc(C(=O)Nc2ccccc2N)cc1 [CI-994],–,–,–,not α-tubulin-ac,significant increase,significant increase,–
CN1CCc2c(c3ccccc3n2Cc2ccc(C(=O)NO)cc2)C1 [Tubastatin A],–,–,–,significantly increased,–,–,comparable level as Bavarostat
